We go through 28 compounds from patent US9328099B2, “Cyanomethylpyrazole carboxamides as janus kinase inhibitors” (Merck Sharp & Dohme Corp., priority 2011, dated 2016).

The target of one experiment is JAK1 (Homo sapiens (Human), UniProt P23458). Description: Jak Biochemical HTRF Assay, JAK1. The conditions noted are these: HTRF biochemical assay, GST-tagged catalytic domain; top concentration tested […]; read-out: JAK1 IC50. From the text: (§1) Jak Biochemical HTRF Assay Protocol
(§2) Subsequent reagent additions employed an Agilent Bravo.

The target of the next experiment is JAK2 (Homo sapiens (Human), UniProt O60674). Description: Jak Biochemical HTRF Assay, JAK2. To be noted: HTRF biochemical assay, GST-tagged catalytic domain; top concentration tested […].
Description: as §1, §2
Background: In TR-FRET formats the signal depends on donor and acceptor labels being close together.

The IC50 is the concentration at which inhibition is half-maximal.

JAK2, sequence (O60674 849-1124): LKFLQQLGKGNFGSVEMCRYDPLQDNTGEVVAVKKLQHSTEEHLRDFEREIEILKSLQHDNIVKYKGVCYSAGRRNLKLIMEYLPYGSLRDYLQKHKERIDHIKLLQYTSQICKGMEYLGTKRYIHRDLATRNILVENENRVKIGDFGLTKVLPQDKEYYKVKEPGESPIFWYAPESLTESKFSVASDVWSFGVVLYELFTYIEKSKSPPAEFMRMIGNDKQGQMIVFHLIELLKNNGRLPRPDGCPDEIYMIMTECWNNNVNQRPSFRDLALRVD
JAK1, sequence (P23458 875-1153): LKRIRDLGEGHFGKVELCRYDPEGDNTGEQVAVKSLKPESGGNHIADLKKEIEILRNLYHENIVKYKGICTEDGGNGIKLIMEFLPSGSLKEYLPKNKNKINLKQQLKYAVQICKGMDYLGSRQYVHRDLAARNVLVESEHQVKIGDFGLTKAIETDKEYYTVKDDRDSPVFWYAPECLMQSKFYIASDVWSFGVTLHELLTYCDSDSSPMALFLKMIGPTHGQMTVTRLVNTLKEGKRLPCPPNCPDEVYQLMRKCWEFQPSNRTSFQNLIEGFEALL

`COc1ccc(C(=O)N2CCC(CC#N)(n3cc(C(N)=O)c(Nc4ccccc4)n3)CC2)cc1` [Example 34-18, 1-{4-(cyanomethyl)-1-[(4-methoxyphenyl)carbonyl]piperidin-4-yl}-3-(phenylamino)-1H-pyrazole-4-carboxamide]: the IC50 on JAK1 is 8 nM; at JAK2, 137 nM.

Take `N#CCC1(n2cc(C(N)=O)c(Nc3ccccc3)n2)CCN(C(=O)c2ccc(Cl)cc2)CC1` [Example 34-19, 1-{1-[(4-chlorophenyl)carbonyl]-4-(cyanomethyl)piperidin-4-yl}-3-(phenylamino)-1H-pyrazole-4-carboxamide]: the IC50 amounted to 11 nM on JAK1 and 184 nM on JAK2.

In the case of `N#CCC1(n2cc(C(N)=O)c(Nc3ccccc3)n2)CCN(C(=O)c2ccccc2Cl)CC1` [Example 34-20, 1-{1-[(2-chlorophenyl)carbonyl]-4-(cyanomethyl)piperidin-4-yl}-3-(phenylamino)-1H-pyrazole-4-carboxamide], the IC50 at JAK1 came to 13 nM; on JAK2 it was 115 nM.

With `N#CCC1(n2cc(C(N)=O)c(Nc3ccccc3)n2)CCN(C(=O)c2cccc(Cl)c2)CC1` [Example 34-21, l-{l-[(3-chlorophenyl)carbonyl]-4-(cyanomethyl)piperidin-4-yl}-3-(phenylamino)-lH-pyrazole-4-carboxamide], the IC50 was 4 nM at JAK1 and 63 nM against JAK2.

With `N#CCC1(n2cc(C(N)=O)c(Nc3ccccc3)n2)CCN(C(=O)c2cc3ccccc3[nH]2)CC1` [Example 34-22, 1-[4-(cyanomethyl)-1-(1H-indol-2-ylcarbonyl)piperidin-4-yl]-3-(phenylamino)-1H-pyrazole-4-carboxamide], the IC50 came out at 6 nM at JAK1 and 176 nM at JAK2.

Consider `CN(C)c1ccc(C(=O)N2CCC(CC#N)(n3cc(C(N)=O)c(Nc4ccccc4)n3)CC2)cc1` [Example 34-23, 1-[4-(cyanomethyl)-1-{[4-(dimethylamino)phenyl]carbonyl}piperidin-4-yl]-3-(phenylamino)-lH-pyrazole-4-carboxamide], for which the values for the IC50 at JAK1 and against JAK2 were 14 nM and 230 nM, respectively.

Take `COc1ccc(CC(=O)N2CCC(CC#N)(n3cc(C(N)=O)c(Nc4ccccc4)n3)CC2)cc1` [Example 34-24, 1-{4-(cyanomethyl)-1-[(4-methoxyphenyl)acetyl]piperidin-4-yl}-3-(phenylamino)-1H-pyrazole-4-carboxamide]: the IC50 on JAK1 was determined as 7 nM; against JAK2, 84 nM.

As for `N#CCC1(n2cc(C(N)=O)c(Nc3ccccc3)n2)CCN(C(=O)c2cccc3ccccc23)CC1` [Example 34-25, 1-[4-(cyanomethyl)-1-(naphthalene-1-ylcarbonyl)piperidin-4-yl]-3-(phenylamino)-1H-pyrazole-4-carboxamide], the figures for the IC50 at JAK1 and on JAK2 were 28 nM and 350 nM, respectively.

For the compound `Cn1c(C(=O)N2CCC(CC#N)(n3cc(C(N)=O)c(Nc4ccccc4)n3)CC2)cc2ccccc21` [Example 34-26, 1-{4-(cyanomethyl)-1-[(1-methyl-1H-indol-2-yl)carbonyl]piperidin-4-yl}-3-(phenylamino)-1H-pyrazole-4-carboxamide], the IC50 is 10 nM on JAK1 and 238 nM on JAK2.

Consider `COc1ccc(C(=O)N2CCC(CC#N)(n3cc(C(N)=O)c(Nc4ccccc4)n3)CC2)cc1OC` [Example 34-27, 1-{4-(cyanomethyl)-l-[(3,4-dimethoxyphenyl)carbonyl]piperidin-4-yl}-3-(phenylamino)-1H-pyrazole-4-carboxamide], for which the IC50 on JAK1 came out at 32 nM; on JAK2 it was 448 nM.

Regarding `N#CCC1(n2cc(C(N)=O)c(Nc3ccccc3)n2)CCN(C(=O)c2cccc(N3CCOCC3)c2)CC1` [Example 34-28, 1-(4-(cyanomethyl)-1-[(3-morpholin-4-ylphenyl)carbonyl]piperidin-4-yl}-3-(phenylamino)-1H-pyrazole-4-carboxamide], the IC50 at JAK1 is 92 nM; on JAK2 it was 1050 nM.

Consider `N#CCC1(n2cc(C(N)=O)c(Nc3ccccc3)n2)CCN(C(=O)c2ccccc2-c2ccccc2)CC1` [Example 34-29, 1-[1-(biphenyl-2-ylcarbonyl)-4-(cyanomethyl)piperidin-4-yl]-3-(phenylamino)-1H-pyrazole-4-carboxamide], for which the IC50 at JAK1 is 387 nM; against JAK2 it was 1480 nM.

`N#CCC1(n2cc(C(N)=O)c(Nc3ccccc3)n2)CCN(C(=O)Cc2ccc(C(F)(F)F)cc2)CC1` [Example 34-30, 1-[4-(cyanomethyl)-1-{[4-(trifluoromethyl)phenyl]acetyl}piperidin-4-yl]-3-(phenylamino)-1H-pyrazole-4-carboxamide]: the figures for the IC50 at JAK1 and on JAK2 were 35 nM and 363 nM, respectively.

For the compound `N#CCC1(n2cc(C(N)=O)c(Nc3ccccc3)n2)CCN(C(=O)c2ccc(N3CCOCC3)cc2)CC1` [Example 34-31, 1-{4-(cyanomethyl)-1-[(4-morpholin-4-ylphenyl)carbonyl]piperidin-4-yl}-3-(phenylamino)-1H-pyrazole-4-carboxamide], the 50% inhibitory concentration (IC50) was found to be 61 nM at JAK1 and 704 nM against JAK2.

With `N#CCC1(n2cc(C(N)=O)c(Nc3ccccc3)n2)CCN(C(=O)c2ccc3ccccc3n2)CC1` [Example 34-32, 1-[4-(cyanomethyl)-1-(quinolin-2-ylcarbonyl)piperidin-4-yl]-3-(phenylamino)-1H-pyrazole-4-carboxamide], the IC50 at JAK1 stood at 6 nM; against JAK2, 166 nM.

In the case of `N#CCC1(n2cc(C(N)=O)c(Nc3ccccc3)n2)CCN(C(=O)C(c2ccccc2)c2ccccc2)CC1` [Example 34-33, 1-[4-(cyanomethyl)-1-(diphenylacetyl)piperidin-4-yl]-3-(phenylamino)-1H-pyrazole-4-carboxamide], the IC50 at JAK1 was 153 nM; on JAK2, 711 nM.

`CN1CCN(c2ccc(C(=O)N3CCC(CC#N)(n4cc(C(N)=O)c(Nc5ccccc5)n4)CC3)cc2)CC1` [Example 34-34, 1-[4-(cyanomethyl)-1-{[4-(4-methylpiperazin-1-yl)phenyl]carbonyl}piperidin-4-yl] 3-(phenylamino)-1H-pyrazole-4-carboxamide]: the IC50 at JAK1 stood at 60 nM; against JAK2, 830 nM.

Turning to `N#CCC1(n2cc(C(N)=O)c(Nc3ccccc3)n2)CCN(C(=O)CO)CC1` [Example 34-35, 1-[4-(cyanomethyl)-1-(hydroxyacetyl)piperidin-4-yl]-3-(phenylamino)-1H-pyrazole-4-carboxamide], the IC50 at JAK1 is 44 nM; against JAK2, 248 nM.

Take `CCC(=O)N1CC(CC#N)(n2cc(C(N)=O)c(Nc3ccccc3)n2)C1` [Example 34-36, 1-[3-(cyanomethyl)-1-propanoylazetidin-3-yl]-3-(phenylamino)-1H-pyrazole-4-carboxamide]: the concentration for half-maximal inhibition (IC50) at JAK1 was 42 nM; against JAK2, 298 nM.

In the case of `CC(C)(C)C(=O)N1CC(CC#N)(n2cc(C(N)=O)c(Nc3ccccc3)n2)C1` [Example 34-37, 1-[3-(cyanomethyl)-1-(2,2-dimethylpropanoyl)azetidin-3-yl]-3-(phenylamino)-1H-pyrazole-4-carboxamide], the IC50 on JAK1 came to 138 nM; against JAK2 it was 570 nM.

Turning to `N#CCC1(n2cc(C(N)=O)c(Nc3ccnc(F)c3)n2)CCN(C(=O)CC2CCCO2)CC1` (centres unmarked) [Example 34-39, 1-[4-(cyanomethyl)-1-(tetrahydrofuran-2-ylacetyl)piperidin-4-yl]-3-[(2-fluoropyridin-4-yl)amino]-1H-pyrazole-4-carboxamide], the values for the IC50 on JAK1 and on JAK2 were 0.9 nM and 42 nM, respectively.

Take `CC(F)(F)C(=O)N1CCC(CC#N)(n2cc(C(N)=O)c(Nc3ccnc(F)c3)n2)CC1` [Example 34-40, 1-[4-(cyanomethyl)-1-(2,2-difluoropropanoyl)piperidin-4-yl]-3 [(2-fluoropyridin-4-yl)amino]-1H-pyrazole-4-carboxamide]: the values for the IC50 on JAK1 and at JAK2 were 0.1 nM and 2 nM, respectively.

`CC(CF)(CF)C(=O)N1CCC(CC#N)(n2cc(C(N)=O)c(Nc3ccnc(F)c3)n2)CC1` [Example 34-41, 1-{4-(cyanomethyl)-1-[3-fluoro-2-(fluoromethyl)-2-methylpropanoyl]piperidin-4-yl}-3-[(2-fluoropyridin-4-yl)amino]-1H-pyrazole-4-carboxamide]: the IC50 on JAK1 came to 3 nM; against JAK2, 48 nM.

On to `COCC(=O)N1CCC(CC#N)(n2cc(C(N)=O)c(Nc3ccnc(F)c3)n2)CC1` [Example 34-42, 1-[4-(cyanomethyl)-1-(methoxyacetyl)piperidin-4-yl]-3-[(2-fluoropyridin-4-yl)amino]-1H-pyrazole-4-carboxamide], for which the results for the IC50 at JAK1 and against JAK2 were 3 nM and 96 nM, respectively.

Consider `CC(C)(O)C(=O)N1CCC(CC#N)(n2cc(C(N)=O)c(Nc3ccnc(F)c3)n2)CC1` [Example 34-43, 1-[4-(cyanomethyl)-1-(2-hydroxy-2-methylpropanoyl)piperidin-4-yl]-3-[(2-fluoropyridin-4-yl)amino]-1H-pyrazole-4-carboxamide], for which the IC50 on JAK1 amounted to 11 nM; on JAK2, 234 nM.

As to `Cn1cc(C(=O)N2CCC(CC#N)(n3cc(C(N)=O)c(Nc4ccnc(F)c4)n3)CC2)cn1` [Example 34-44, 1-{4-(cyanomethyl)-1-[(1-methyl-1H-pyrazol-4-yl)carbonyl]piperidin-4-yl}-3-[(2-fluoropyridin-4-yl)amino]-1H-pyrazole-4-carboxamide], the IC50 at JAK1 turned out to be 2 nM; on JAK2, 63 nM.

For the compound `N#CCC1(n2cc(C(N)=O)c(Nc3ccnc(F)c3)n2)CCN(C(=O)CC2CC2)CC1` [Example 34-45, 1-[4-(cyanomethyl)-1-(cyclopropylacetyl)piperidin-4-yl]-3-[(2-fluoropyridin-4-yl)amino]-1H-pyrazole-4-carboxamide], the IC50 worked out at 1 nM on JAK1 and 46 nM against JAK2.

As for `CC(C)[C@@H](O)C(=O)N1CCC(CC#N)(n2cc(C(N)=O)c(Nc3ccnc(F)c3)n2)CC1` [Example 34-46, 1-{4-(cyanomethyl)-1-[(2R)-2-hydroxy-3-methylbutanoyl]piperidin-4-yl}-3-[(2-fluoropyridin-4-yl)amino]-1H-pyrazole-4-carboxamide], the IC50 at JAK1 was 2 nM; on JAK2, 139 nM.
